Literature values in patent publication US20040247626A1, “Stable aqueous dispersion of 1, 2-benzisothiazoline-3-one (bit)” (priority 2004, published 2004).

O=c1[nH]sc2ccccc12 [BIT, 1,2-benzisothiazolin-3-one]
solubility in water: sparingly soluble
